The source of these data is patent US20170319256A1, “METHOD OF SELECTIVELY KILLING CANCER CELLS USING LOW-TEMPERATURE PLASMA JET DEVICE AND METHOD OF TREATING TUMORS USING THE SAME” (Dong-A University Research Foundation for Industry-Academy …, priority 2016, published 2017).

For assay [1], the system named is A549 and SK-MEL2 cells. Kind of assay: γH2AX phosphorylation immunofluorescence (marker for DNA breaks). Particulars: FIG. 4A. In kind it is cell-based, human. The procedure: (§1) Cells were treated using a previously reported plasma jet device. A typical operating condition of the pulsed-dc plasma jet has the applied voltage 1.6 kV, repetition frequency 50 kHz, and duty ratio 10%. The working gas (helium) and reactive gas (oxygen) flow rate were kept constant at 500 and 5 SCCM (SCCM denotes cubic centimeter per minute at standard temperature and pressure), respectively. The cells were cultured on 12-mm microscope cover glass coated with gelatin from porcine skin (Sigma-Aldrich) and were treated with helium generated-NTP with or without the flow of oxygen gas. The exposed cover glass was then transferred to 12-well plates containing fresh medium and incubated at 37° C. in a humidified incubator supplemented with 5% CO2. If necessary, the cells were treated with 5 or 10 μM of specific inhibitors targeting ATR (ETP46464), ATM (KU55933), DNA-PK (NU7026), or PARP1 (AZD2281) for 1 h before plasma treatment and kept until cell harvest. […]
(§2) For immunofluorescence staining, cells were fixed with 4% formaldehyde (Sigma-Aldrich) for 10 min at room temperature and permeabilized with 0.5% Triton™ X-100 (Bio Basic). […] The images were captured using a fluorescence microscope (Nikon) equipped with the NIS-Elements 4.0 Nikon imaging software. For quantification, a minimum of 500 cells were analyzed from each of three independent experiments.

Assay [2] concerns A549 and SKMEL2 cells. Kind of assay: CHK1 phosphorylation immunofluorescence after kinase inhibitor pretreatment and NTP or NTPO. The class given is cell-based, human. Particulars: inhibitor pretreatment (5 or 10 μM, 1 h before plasma), followed by NTP or NTPO; FIG. 3A. The procedure:
as §1, §2

As for `O=C(c1cc(Cc2n[nH]c(=O)c3ccccc23)ccc1F)N1CCN(C(=O)C2CC2)CC1` [AZD2281, olaparib], the γH2AX phosphorylation entry in assay [1] (PARP-1 inhibitor plus treatment of NTP or NTPO) is “significantly increased”; in assay [1] (PARP-1 inhibitor, gas control) it was “measured even in the case of gas control”.

Turning to `CC(C)(C#N)c1ccc(N2C(=O)OCc3cnc4ccc(-c5cnc6ccccc6c5)cc4c32)cc1` [ETP 46464], the CHK1 phosphorylation result in assay [2] is reported as “phosphorylation was not shown”.
